Residues, ends and D or L forms follow the SMILES beside them. *: point of attachment. Tos = Cc1ccc(S(=O)(=O)*)cc1

`Cc1cccc(-c2c3c(cc4ccc5c(c24)OCO5)C(=O)NC3=O)c1` displayed a melting point of 261 to 264 °C.
For the compound `Fc1cccc(Cl)c1COc1cccnc1NC(=S)Nc1ccccc1`, the melting point is 143 to 145 °C.
In the case of `COC(C#N)=CC1C(C(=O)O)C1(C)C` (centres undefined) it was 110 °C.
The value for `CCOCCCc1ccc(Oc2ccc3c(c2)C=C(C(=O)Nc2ccc(CN(C)C4CCOCC4)cc2)CCS3(=O)=O)cc1` was 156 to 157 °C; that for `CC(C)(C)c1cc(-c2csc(CN3CCSCC3)n2)cc(C(C)(C)C)c1O` was 153 to 155 °C.
In the case of `COc1ccc(OC)c2c1COC2=O` it was 168 to 170 °C; in that of `Fc1cccc(Cl)c1-c1nc(F)n(-c2ccccc2C(F)(F)F)n1`, 68 to 70 °C.
For the compound `Nc1ccc(OCC(O)CO)c(O)c1` (centres undefined), the melting point came to 141 °C.
The value for `COc1ccc(C(=O)Nc2c(Cl)cncc2Cl)c2c1oc1ccc(NC(=O)C(F)(F)F)cc12` was over 300 °C; that for `CS(=O)c1cccc(CNC(=O)c2nc3scc(COCc4ccc(C(=O)O)cc4)c3c(=O)[nH]2)c1` (centres undefined) was 227 to 228 °C; that for `CN1Cc2c(-c3nnc(CN)o3)ncn2-c2ccsc2C1=O` was 217 to 219 °C.
In the case of `NCC1CCN(c2c(F)cc3c(=O)c(C(=O)O)cn(C4CC4)c3c2F)C1` (centres undefined) it was 232 to 235 °C; in that of `CNS(=O)(=O)NC(C)C`, 50 to 52 °C; in that of `COc1ccc(CCN(C)c2cc(C)sc2CO)cc1OC`, 149 °C.
The value for `CC(C)(C)Nc1nccc(C#Cc2ccc(F)cc2)n1` was 97 to 99 °C; that for `OC1(c2cccc(OCc3ccccc3)c2)CCOCC1` was 84 to 86 °C.
The compound `Cc1ccccc1CCCc1c(C)nc(N)nc1N` gave a melting point of 213 to 215 °C.
The value for `CCCc1nc(Nc2ccc3cn[nH]c3c2)nc(NC2CCN(S(C)(=O)=O)CC2)n1` was 219 to 221 °C.
Regarding `CCNc1c(OC)cc(Cc2cnc(N)nc2N)cc1OC`, the melting point is 186 to 188 °C.
Regarding `Cc1c(C)c(C)c2c(c1C)C=CC(C)(COc1ccc([N+](=O)[O-])cc1)O2` (centres undefined), the melting point fell in the range of 142 to 145 °C.
In the case of `CCOC(=O)c1cn(NCCC=O)c2nc(C)ccc2c1=O` it was 175 to 178 °C.
In the case of `Cc1ccc(-c2c(C#N)cccc2C#N)cc1` it was 184 to 186 °C; in that of `NC(=O)c1c(F)ccc(OCc2ccc3ccccc3n2)c1F`, 216 to 218 °C; in that of `CCN(CC)CCNC(=O)c1cc(Cl)c(N)cc1OCC(C)O` (centres undefined), 149 to 150 °C.
In the case of `C=CCCCN(CCCC=C)Cc1noc(-c2ncn3c2CN(C)C(=O)c2ccccc2-3)n1` it was 167 to 169 °C; in that of `CC(O)c1ccc(NS(C)(=O)=O)c(Nc2ccc(F)cc2F)c1` (centres undefined), 192 to 193 °C; in that of `NC(=O)c1c(Cl)c(-c2ccccc2)n2c1CN(S(=O)(=O)c1ccncc1)CC2`, 202 to 204 °C.
In turn, `Cc1nnc(-c2ccc3occ(-c4ccc(S(C)=O)c(Cl)c4)c3c2)o1` (centres undefined) displayed a melting point of 196 to 197 °C.
For the compound `CN1CCN(CC(O)COc2cccc3ccccc23)CC1` (centres undefined), the melting point fell in the range of 73 to 74 °C.
On to `Cc1ccn(-c2ncc(C(=O)N3Cc4cccn4Cc4ccccc43)c(C(F)(F)F)n2)n1`, for which the melting point was in the range of 202 to 204 °C.
In the case of `CCOC(=O)OCSCC1=C(C(=O)OCC)C(c2cccc([N+](=O)[O-])c2)C(C(=O)OCC)=C(C)N1` (centres undefined) it was 83 to 85 °C; in that of `Cc1nc(-n2cnn(CC3CC3(F)F)c2=O)sc1C(=O)O` (centres undefined), 220 to 222 °C.
The value for `CCOC(=O)c1ccc(-c2nc(CCl)c(C)o2)o1` was 117 to 118 °C; that for `CC(=O)Nc1ccccc1CCc1ccccn1` was 230 to 232 °C.
In the case of `Cc1cc(C)n(-c2cc(F)c(C#N)cc2F)n1` it was 122 °C; in that of `CC(=O)Oc1cccc(C(=Cc2ccccc2)c2cccc(OC(C)=O)c2OC(C)=O)c1OC(C)=O`, 163 °C.
`O=C(O)c1ccc(CO/N=C/c2cc3ccccc3n2Cc2ccccc2)cc1Br` returned a melting point of 148 to 149 °C.
The value for `COc1ccc(S(=O)(=O)Nc2cc(NC(=O)c3ccc(Cl)c(Cl)c3)ccc2OC)cc1` was 225 to 227 °C; that for `CCOC(=O)CCc1oc(-n2cncn2)nc1-c1ccc(Cl)cc1` was 99 to 100 °C.
As for `COc1cc2c(cc1OC(C)=O)CCC1C2CCC2(C)C1CCC21OCCO1` (centres undefined), the melting point lay in the range of 166 to 167 °C.
Consider `Clc1ccc(C=NOCC2CO2)cc1` (centres undefined), for which the melting point was in the range of 69 to 70 °C.
`CC(C)N(CCSc1ccc(F)cc1)C(=O)Oc1ccccc1`: the melting point lay in the range of 53 to 58 °C.
In the case of `Cc1ccc(S(=O)(=O)OCC2Cc3cccc(-c4ccc(Cl)cc4)c3O2)cc1` (centres undefined) it was 130 to 133 °C; in that of `Cc1ccc(C(=O)Nc2ccc3ccc(Cl)nc3n2)cc1`, 228 °C; in that of `CC1(Cn2nc(-c3ccc(OC(F)(F)F)cc3)oc2=O)Cn2cc([N+](=O)[O-])nc2O1` (centres undefined), 146 to 148 °C.
In the case of `CCC(C)=NNC(=O)c1cccc2nnsc12` it was 159 to 162 °C.
In the case of `O=C1c2ccccc2Nc2ccccc2N1CCCCl` it was 127 to 131 °C.
For `C=C(C)C(=O)OCc1ccc(O)c(C=O)c1`, the melting point lay in the range of 82 to 84 °C.
In the case of `COc1cc(NCc2ccccc2C)ccc1C(=O)N1CCCC(CC(=O)N2CCN(C)CC2)c2cc(Cl)ccc21` (centres undefined) it was 153 to 154 °C.
In the case of `Cc1ccc(S(=O)(=O)N2CCC[C@H]2C(=O)N[C@@H](CC(N)=O)C(=O)O)cc1` (Tos-Pro-Asn-OH) it was 178 to 180 °C.
The value for `Cc1ccc(CN(O)C(N)=O)s1` was 134 °C; that for `COC(=O)CCCc1cc2cc(Cl)ccc2n1S(=O)(=O)c1c(C)noc1C` was 96 to 98 °C.
`O=C(O)c1cccnc1-c1ccc2[nH]nc(Nc3nccs3)c2c1` had a melting point of 267 to 268 °C.
The value for `O=C(Nc1ccc(F)cc1F)N(Cc1ccccc1)CC(c1ccccc1)c1ccccc1` was 120 to 123 °C.
In the case of `Cn1nc(-c2ccc(F)cc2)c(-c2ccncc2)c1N` it was 155 to 158 °C.
The compound `CCOC(=O)Cc1ccnc2c(N)cccc12` showed a melting point of 71 to 77 °C.
In the case of `CCOC(=O)C(C(=O)OCC)c1ccc(OCc2ccccc2)cc1` it was 65 to 66 °C.
In the case of `O=C(Nc1ccc(Oc2ccnc(NCCN3CCCC3)n2)c2ccccc12)c1cc(F)cc(N2CCOCC2)c1` it was 95 to 97 °C.
In the case of `COc1ccc(C)cc1NC(=O)Nc1ccc(N2CCN(C(=O)Nc3ccc(OCC(O)CO)cc3C)CC2)cc1` (centres undefined) it was 148 to 150 °C; in that of `COc1cc(OCCNC(C)=O)cc(-c2nc3cc(OC)cc(OC)c3c(=O)[nH]2)c1`, 264 to 265 °C; in that of `COc1cccc(CN[C@H](C)c2ccc([N+](=O)[O-])cc2)c1O`, 112 to 114 °C.
`CCCCCCCCCCCCCCCCCCOc1ccc(C(=O)C(Sc2nnnn2-c2ccccc2)c2ccc([N+](=O)[O-])cc2)cc1` (centres undefined) yielded a melting point of 82 to 95 °C.
The value for `CC(C)(C)c1csc(-c2cc3cc(Cc4nc(-c5ccccc5)c(CC(=O)O)s4)ccc3o2)n1` was 174 to 180 °C; that for `COC(=O)C(C)(C)OCc1cc2cc(Cl)ccc2n1S(=O)(=O)c1ccc(OC)cc1` was 96 to 98 °C.
In the case of `N#CCNC1(c2ccccc2Cl)C(=O)Nc2ccc(Cl)cc21` (centres undefined) it was 240 to 241 °C; in that of `CCCC[C@H](F)C(=O)N[C@@H](C)c1ccc([N+](=O)[O-])cc1`, 84.5 to 86.5 °C; in that of `COc1cc2nc(N3CCN(C(=O)C=Cc4ccc(C(C)C)cc4)CC3)nc(N)c2cc1OC`, 237 to 238 °C.
The value for `CC(=O)OCc1cnc2c(NC(=O)c3c(Cl)cccc3Cl)cccc2c1` was 199 to 201 °C; that for `CNC(=O)CNc1cccc2c1C(=O)N(C1CCC(=O)NC1=O)C2=O` (centres undefined) was 210 to 212 °C; that for `COC(=O)c1cncn1C1c2ccccc2C2OC2C1(C)C` (centres undefined) was 60 to 68 °C.
In the case of `COc1ccc2c(C)c3c(c(-c4ccc(F)cc4)c2c1)CNC3=O`, the melting point lay within 236 to 238 °C.
The value for `CCOC(=O)c1cc2c(O)nncc2nc1NC(C)CC` (centres undefined) was 184 to 185 °C.
Turning to `COc1ccccc1Oc1c(O)nc(SC)nc1O`, the melting point was in the range of 206 to 210 °C.
In the case of `N#Cc1ccc(C(=O)Cc2ccc(C#N)cc2[N+](=O)[O-])cc1` it was 188 to 190 °C; in that of `Cc1ccncc1C(N)=S`, 104 to 106 °C; in that of `O=C(c1ccccc1)c1ccc(Cl)cc1Cl`, 41 to 43 °C.
`CCOc1ccc(-c2ncc(C#N)c(Cl)n2)cc1` gave a melting point of 191 to 192 °C.
`O=CC(=Cc1ccc(OC(=O)c2ccccc2)cc1)C(C=O)=Cc1ccc(OC(=O)c2ccccc2)cc1` registered a melting point of 207 to 208 °C.
In the case of `CCS(=O)(=O)N1CCNC1=O` it was 114 to 116 °C; in that of `CN(C)CC(O)COc1ccc(C=CC(=O)N2CCc3c([nH]c4ccccc34)C2c2ccc3c(c2)CCO3)cc1` (centres undefined), 138 °C.
With `Cc1c(OCc2ccc([Si](C)(C)C)cc2)cnn(C(C)(C)C)c1=O`, the melting point lay within 93.5 to 95.5 °C.
In the case of `Cc1nnc(C=O)n1-c1ccc(Cl)cc1C(=O)c1ccccc1` it was 105 to 138 °C.
The value for `OCC[C@H]1CN(Cc2ccccc2)CCN1` was 78.9 to 80.4 °C; that for `Cc1cc(C)c(CCCc2c(C)nc(N)nc2N)cc1C` was 188 to 190 °C; that for `CCOC(=O)c1c(Cn2cncn2)nc2sc(C)c(C)c2c1-c1ccc(OC)c(OC)c1` was 136 to 137 °C.
`CCCC1COc2c(Cc3ccc(C(C)C)cc3)c(C)c(NC(=O)CC(C)(C)C)c(C)c21` (centres undefined) had a melting point of 144 to 145 °C.
The value for `COc1ccc2cc(Br)ccc2c1C(=O)N(C)C` was 124 to 125 °C; that for `Cc1cnc(N2N=C(c3ccc([N+](=O)[O-])cc3)c3cc4c(cc3CC2C)OCO4)s1` (centres undefined) was 193 to 195 °C; that for `CCOC(=O)C1N=C(c2ccccc2)c2ccccc2NC1=O` (centres undefined) was 226 °C.

Usually melting point stands for the temperature, or range, at which the solid turns liquid.

The record behind these values is a melting point compilation (Tetko et al.; mined from patent text by program, amines drawn as free bases though some values may be those of a salt).
